# Reference: ChEMBL document CHEMBL2331210, “New 2-benzylsulfanyl-nicotinic acid based 1,3,4-oxadiazoles: their synthesis and biological evaluation” (2013)
# What was measured:
# Format in all cases: functional
# Aspergillus niger = assay: Antimicrobial activity against Aspergillus niger MTCC 282 assessed as growth inhibition measured after overnight incubation by broth dilution method
# [1] = tested on: Mycobacterium tuberculosis; assay: Antitubercular activity against Mycobacterium tuberculosis H37Rv assessed as growth inhibition after 12 to 28 days by L.J. agar MIC method; settings: for MIC: Mycobacterium tuberculosis, H37Rv
# Pseudomonas aeruginosa = assay: Antimicrobial activity against Pseudomonas aeruginosa MTCC 2488 assessed as growth inhibition measured after overnight incubation by broth dilution method
# Candida albicans = assay: Antimicrobial activity against Candida albicans MTCC 227 assessed as growth inhibition measured after overnight incubation by broth dilution method
# Staphylococcus aureus = assay: Antimicrobial activity against Staphylococcus aureus MTCC 96 assessed as growth inhibition measured after overnight incubation by broth dilution method
# Escherichia coli = assay: Antimicrobial activity against Escherichia coli MTCC 443 assessed as growth inhibition measured after overnight incubation by broth dilution method
# Streptococcus pyogenes = assay: Antimicrobial activity against Streptococcus pyogenes MTCC 442 assessed as growth inhibition measured after overnight incubation by broth dilution method
# Aspergillus clavatus = assay: Antimicrobial activity against Aspergillus clavatus MTCC 1323 assessed as growth inhibition measured after overnight incubation by broth dilution method
SMILES,MIC (Aspergillus niger),growth inhibition (GI) [1],MIC [1],MIC (Pseudomonas aeruginosa),MIC (Candida albicans),MIC (Staphylococcus aureus),MIC (Escherichia coli),MIC (Streptococcus pyogenes),MIC (Aspergillus clavatus)
c1ccc(CSc2ncccc2-c2nnc(SCC3CO3)o2)cc1 (stereo not drawn),1000 µg/mL,97%,500 µg/mL,125 µg/mL,500 µg/mL,62.5 µg/mL,62.5 µg/mL,250 µg/mL,1000 µg/mL
CC1(C)S[C@@H]2[C@H](NC(=O)[C@H](N)c3ccccc3)C(=O)N2[C@H]1C(=O)O [AMPICILLIN],,,,100 µg/mL,,250 µg/mL,100 µg/mL,100 µg/mL,
COC1=CC(=O)C[C@@H](C)[C@]12Oc1c(Cl)c(OC)cc(OC)c1C2=O [GRISEOFULVIN],100 µg/mL,,,,500 µg/mL,,,,100 µg/mL
CO[C@H]1/C=C/O[C@@]2(C)Oc3c(C)c(O)c4c(O)c(c(/C=N/N5CCN(C)CC5)c(O)c4c3C2=O)NC(=O)/C(C)=C\C=C\[C@H](C)[C@H](O)[C@@H](C)[C@@H](O)[C@@H](C)[C@H](OC(C)=O)[C@@H]1C [RIFAMPIN],,99%,40 µg/mL,,,,,,
